{
  "source": "patent US20040171566A1",
  "about": "“Antisense modulation of p38 mitogen activated protein kinase expression” (priority 1999, published 2004)",
  "key": {"mouse p38β mRNA": {"system": "mouse p38β mRNA", "test": "Inhibition of mouse p38β mRNA expression in bEND.3 cells, Northern blot", "type": "cell-based", "details": "mouse p38β antisense oligonucleotides, screened as in Example 4", "experimental": "(§1) bEND.3, a mouse endothelial cell line (gift of Dr. Werner Risau; see Montesano et al., Cell, 1990, 62, 435, and Stepkowski et al., J. Immunol., 1994, 153, 5336) were grown in high-glucose DMEM (Life Technologies, Gaithersburg, Md.) medium containing 10% fetal bovine serum (FBS) and 1% Penicillin/Streptomycinin. Cells were plated at approximately 2×10^5 cells per 100 mm dish. Within 48 hours of plating, the cells were washed with phosphate-buffered saline (Life Technologies). Then, Opti-MEM7 medium containing 3 μg/mL LIPOFECTIN^7 and an appropriate amount of oligonucleotide were added to the cells. As a control, cells were treated with LIPOFECTIN^7 without oligonucleotide under the same conditions and for the same times as the oligonucleotide-treated samples.\n(§2) After 4 hours at 37° C., the medium was replaced with high glucose DMEM medium containing 10% FBS and 1% Penicillin/Streptomycinin. The cells were typically allowed to recover overnight (about 18 to 24 hours) before RNA and/or protein assays were performed as described in Example 2. The p38α, p38β and G3PDH probes used were identical to those described in Example 2.\n(§3) Rat p38α antisense oligonucleotides were screened in bEND.3 cells for inhibition of p38α and p38β mRNA expression. The concentration of oligonucleotide used was 100 nM. Oligonucleotides 21844 (SEQ ID NO. 47), 21845 (SEQ ID NO. 48), 21872 (SEQ ID NO. 51), 21873 (SEQ ID NO. 52), 21875 (SEQ ID NO. 54), and 21876 (SEQ ID NO.\n(§4) Mouse p38β antisense sequences were screened in bEND.3 cells as described in Example 4."}, "mouse p38α mRNA": {"system": "mouse p38α mRNA", "test": "Inhibition of mouse p38α mRNA expression in bEND.3 cells, Northern blot", "type": "cell-based", "details": "mouse p38β antisense oligonucleotides, screened as in Example 4", "experimental": "as §1, §2, §3, §4"}, "rat p38α mRNA": {"system": "rat p38α mRNA", "test": "Inhibition of rat p38α mRNA expression in A-10 cells, Northern blot", "type": "cell-based", "details": "Rat A-10 cells, 200 nM oligonucleotide, 24 hours", "experimental": "Rat p38α antisense oligonucleotides were screened in Rat A-10 cells. A-10 cells (American Type Culture Collection, Manassas, Va.) were grown in high-glucose DMEM (Life Technologies, Gaithersburg, Md.) medium containing 10% fetal calf serum (FCS). Cells were treated with oligonucleotide as described in Example 2. Oligonucleotide concentration was 200 nM. mRNA was isolated 24 hours after time zero and quantitated by Northern blot as described in Example 2."}, "human p38β mRNA [1]": {"system": "human p38β mRNA", "test": "Human p38β mRNA expression in T-24 cells"}, "human p38α mRNA": {"system": "human p38α mRNA", "test": "Human p38α mRNA expression in T-24 cells", "details": "initial screen of human p38β oligonucleotides"}, "human p38β mRNA [2]": {"system": "human p38β mRNA", "test": "Inhibition of human p38β mRNA expression in HUVEC cells, Northern blot", "type": "cell-based", "experimental": "The human Jurkat T-cell line (American Type Culture Collection, Manassas, Va.) was maintained in RPMI 1640 growth media supplemented with 10% fetal bovine serum (FBS; Hyclone, Logan, Utah). HUVEC cells (Clonetics, San Diego, Calif.) were cultivated in endothelial basal media supplemented with 10% FBS (Hyclone, Logan, Utah).\nHUVEC cells were allowed to reach 75% confluency prior to use. The cells were washed twice with warm (37° C.) OPTI-MEM™ (Life Technologies). The cells were incubated in the presence of the appropriate culture medium, without the growth factors added, and the oligonucleotide formulated in LIPOFECTIN7 (Life Technologies), a 1:1 (w/w) liposome formulation of the cationic lipid N-[1-(2,3-dioleyloxy)propyl]-n,n,n-trimethylammonium chloride (DOTMA), and dioleoyl phosphotidylethanolamine (DOPE) in membrane filtered water. HUVEC cells were treated with 100 nM oligonucleotide in 10 μg/ml LIPOFECTIN7. Treatment was for four hours.\nTotal mRNA was isolated using the RNEASY7 Mini Kit (Qiagen, Valencia, Calif.; similar kits from other manufacturers may also be used), separated on a 1% agarose gel, transferred to HYBOND™-N+ membrane (Amersham Pharmacia Biotech, Piscataway, N.J.), a positively charged nylon membrane, and probed. p38 MAPK probes were made using the Prime-A-Gene7 kit (Promega Corporation, Madison, Wis.), a random primer labeling kit, using mouse p38α or p38β cDNA as a template. A glyceraldehyde 3-phosphate dehydrogenase (G3PDH) probe was purchased from Clontech (Palo Alto, Calif.), Catalog Number 9805-1. The fragments were purified from low-melting temperature agarose, as described in Maniatis, T., et al., Molecular Cloning: A Laboratory Manual, 1989. The G3PDH probe was labeled with REDIVUE™ ^32P-dCTP (Amersham Pharmacia Biotech, Piscataway, N.J.) and Strip-EZ labelling kit (Ambion, Austin, Tex.). mRNA was quantitated by a PhosphoImager (Molecular Dynamics, Sunnyvale, Calif.).\nEvery oligonucleotide tested gave at least 50% inhibition.\nOligonucleotides 17893 (SEQ ID NO. 27), 17899 (SEQ ID NO:33), 17904 (SEQ ID NO. 38), and 17907 (SEQ ID NO. 41) were chosen for dose response studies. HUVEC cells were cultured and treated as described in Example 2 except that the oligonucleotide concentration was varied as shown in Table 6. The Lipofectin7/Oligo ratio was maintained at 3 μg Lipofectin7/100 nM oligo, per ml. mRNA was measured by Northern blot as described in Example 2."}, "[3]": {"details": "dose 50 nM, relative to control oligonucleotide = 100%"}, "[4]": {"details": "dose 100 nM, relative to control oligonucleotide = 100%"}, "[5]": {"details": "dose 200 nM, relative to control oligonucleotide = 100%"}, "[6]": {"details": "initial screen of human p38β oligonucleotides"}, "[7]": {"details": "100 nM oligonucleotide in 10 μg/ml LIPOFECTIN, four hours, Northern blot"}},
  "note": "In the oligonucleotide strings, read from the 5' end, every base follows the letter of its sugar. An asterisk marks phosphorothioate; unmarked linkages are phosphodiester. Other units and linkages are bracketed, terminal groups are in braces. A string of capitals states the bases alone. e = 2'-O-(2-methoxyethyl) (MOE); [5mC] = 5-methylcytosine; d = 2'-deoxy (DNA)",
  "data": [
    {"substance": "CoAoGoGoCsCsAsCsAsGsAsCsCsAsGsAoToGoToC (antisense e[5mC]eAeGeGe[5mC]*d[5mC]*dA*d[5mC]*dA*dG*dA*d[5mC]*d[5mC]*dA*dG*eAeTeGeTe[5mC]) [ISIS 100812]", "values": [
      {"measurement": "% p38β mRNA Inhibition", "setting": "mouse p38β mRNA", "result": 36, "unit": "%"},
      {"measurement": "% p38α mRNA INHIBITION", "setting": "mouse p38α mRNA", "result": 17, "unit": "%"}
    ]},
    {"substance": "ToAoCoCoAsCsCsGsTsGsTsGsGsCsCsAoCoAoToA (antisense eTeAe[5mC]e[5mC]eA*d[5mC]*d[5mC]*dG*dT*dG*dT*dG*dG*d[5mC]*d[5mC]*eAe[5mC]eAeTeA) [ISIS 100810]", "values": [
      {"measurement": "% p38α mRNA INHIBITION", "setting": "mouse p38α mRNA", "result": 1, "unit": "%"}
    ]},
    {"substance": "GoGoCoToAsCsCsAsTsGsAsGsTsGsAsGoAoAoGoA (antisense eGeGe[5mC]eTeA*d[5mC]*d[5mC]*dA*dT*dG*dA*dG*dT*dG*dA*eGeAeAeGeA) [ISIS 21879]", "values": [
      {"measurement": "% p38α mRNA EXPRESSION", "setting": "rat p38α mRNA", "result": 11, "unit": "%"}
    ]},
    {"substance": "AoCoAoToTsGsCsTsGsGsGsCsTsTsCsAoGoGoToC (antisense eAe[5mC]eAeTeT*dG*d[5mC]*dT*dG*dG*dG*d[5mC]*dT*dT*d[5mC]*eAeGeGeTe[5mC]) [ISIS 100808]", "values": [
      {"measurement": "% p38α mRNA INHIBITION", "setting": "mouse p38α mRNA", "result": 13, "unit": "%"}
    ]},
    {"substance": "ATCCTGAGCTCACAGTCCTC (chimeric, phosphorothioate, further chemistry not given here) [ISIS 17899]", "values": [
      {"measurement": "% p38β mRNA Expression", "setting": "human p38β mRNA [1]; [3]", "result": 89, "unit": "%"},
      {"measurement": "% p38β mRNA Expression", "setting": "human p38β mRNA [1]; [4]", "result": 36, "unit": "%"},
      {"measurement": "% p38β mRNA Expression", "setting": "human p38β mRNA [1]; [5]", "result": 15, "unit": "%"},
      {"measurement": "% p38β mRNA Expression", "setting": "human p38β mRNA [1]; [6]", "result": 56, "unit": "%"},
      {"measurement": "% p38α mRNA EXPRESSION", "setting": "human p38α mRNA", "result": 117, "unit": "%"},
      {"measurement": "% mRNA EXPRESSION", "setting": "human p38β mRNA [2]; [7]", "result": 5, "unit": "%"},
      {"measurement": "% mRNA Inhibition", "setting": "human p38β mRNA [2]; [7]", "result": 95, "unit": "%"},
      {"measurement": "% mRNA EXPRESSION", "setting": "human p38β mRNA [2]; dose 10 nM", "result": 37, "unit": "%"},
      {"measurement": "% mRNA Inhibition", "setting": "human p38β mRNA [2]; dose 10 nM", "result": 63, "unit": "%"},
      {"measurement": "% mRNA EXPRESSION", "setting": "human p38β mRNA [2]; dose 25 nM", "result": 23, "unit": "%"},
      {"measurement": "% mRNA Inhibition", "setting": "human p38β mRNA [2]; dose 25 nM", "result": 77, "unit": "%"},
      {"measurement": "% mRNA EXPRESSION", "setting": "human p38β mRNA [2]; dose 50 nM", "result": 18, "unit": "%"},
      {"measurement": "% mRNA Inhibition", "setting": "human p38β mRNA [2]; dose 50 nM", "result": 82, "unit": "%"},
      {"measurement": "% mRNA EXPRESSION", "setting": "human p38β mRNA [2]; dose 100 nM", "result": 21, "unit": "%"},
      {"measurement": "% mRNA Inhibition", "setting": "human p38β mRNA [2]; dose 100 nM", "result": 79, "unit": "%"}
    ]},
    {"substance": "GoGoToAoAsGsCsTsTsCsTsGsAsCsAsCoToToCoA (antisense eGeGeTeAeA*dG*d[5mC]*dT*dT*d[5mC]*dT*dG*dA*d[5mC]*dA*e[5mC]eTeTe[5mC]eA) [ISIS 21845]", "values": [
      {"measurement": "% p38α mRNA EXPRESSION", "setting": "rat p38α mRNA", "result": 25, "unit": "%"}
    ]},
    {"substance": "ToCoToToCsCsAsAsTsGsGsAsGsAsAsAoCoToGoG (antisense eTe[5mC]eTeTe[5mC]*d[5mC]*dA*dA*dT*dG*dG*dA*dG*dA*dA*eAe[5mC]eTeGeG) [ISIS 21881]", "values": [
      {"measurement": "% p38α mRNA EXPRESSION", "setting": "rat p38α mRNA", "result": 31, "unit": "%"}
    ]},
    {"substance": "CoCoCoToGsCsAsGsCsCsGsCsTsGsCsGoGoCoAoC (antisense e[5mC]e[5mC]e[5mC]eTeG*d[5mC]*dA*dG*d[5mC]*d[5mC]*dG*d[5mC]*dT*dG*d[5mC]*eGeGe[5mC]eAe[5mC]) [ISIS 100802]", "values": [
      {"measurement": "% p38β mRNA Expression", "setting": "human p38β mRNA [1]; [6]", "result": 47, "unit": "%"},
      {"measurement": "% p38α mRNA EXPRESSION", "setting": "human p38α mRNA", "result": 78, "unit": "%"},
      {"measurement": "% p38β mRNA Inhibition", "setting": "mouse p38β mRNA", "result": 35, "unit": "%"}
    ]},
    {"substance": "ACGTTGCTGGGCTTCAGGTC (antisense eAe[5mC]eGeTeT*dG*d[5mC]*dT*dG*dG*dG*d[5mC]*dT*dT*d[5mC]*eAeGeGeTe[5mC]) [ISIS 107874]", "values": [
      {"measurement": "% p38β mRNA Expression", "setting": "human p38β mRNA [1]; [3]", "result": 75, "unit": "%"},
      {"measurement": "% p38β mRNA Expression", "setting": "human p38β mRNA [1]; [4]", "result": 34, "unit": "%"},
      {"measurement": "% p38β mRNA Expression", "setting": "human p38β mRNA [1]; [5]", "result": 23, "unit": "%"},
      {"measurement": "% p38β mRNA Expression", "setting": "human p38β mRNA [1]; [6]", "result": 61, "unit": "%"},
      {"measurement": "% p38α mRNA EXPRESSION", "setting": "human p38α mRNA", "result": 100, "unit": "%"}
    ]}
  ]
}
